# Patent publication US9120774B2 (University of Kansas, priority 2009, dated 2015)
# Where two headings read alike, the source gives them in different places.
# How the values were obtained:
# Assay type in all cases: cell-based
# [1] = system: LNCaP (androgen sensitive prostate cancer cells); assay: Anti-proliferation activity against LNCaP cells; conditions: for IC50: Homo sapiens, LNCaP, 72 hours, MTS/PMS, mean ± standard deviation
# Method: (§1) Upon completion of synthesis of library of compounds in Examples 23 and 24, the compounds were evaluated for anti-proliferative activity against SkBr3 (Her2 overexpressing breast cancer cells), MCF-7 (estrogen receptor positive breast cancer cells), HCT-116 (colon cancer cells characterized by wild-type p53), PL45 (pancreatic cancer cells), LNCaP (androgen sensitive prostate cancer cells) and PC-3 (androgen independent prostate cancer cells) cell lines. […] The monosubstituted benzamide variants improved activity.
# (§2) Cells were maintained in a 1:1 mixture of Advanced DMEM/F12 (Gibco) supplemented with non-essential amino acids, L-glutamine (2 mM), streptomycin (500 ng/mL), penicillin (100 units/mL), and 10% FBS. Cells were grown to confluence in a humidified atmosphere (37° C., 5% CO2), seeded (2000/well, 100 μl) in 96-well plates, and allowed to attach overnight. Compound or GDA at varying concentrations in DMSO (1% DMSO final concentration) was added, and cells were returned to the incubator for 72 hours. At 72 hours, the number of viable cells was determined using an MTS/PMS cell proliferation kit (Promega) per the manufacturer's instructions. Cells incubated in 1% DMSO were used at 100% proliferation, and values were adjusted accordingly. IC50 values were calculated from separate experiments performed in triplicate using GraphPad Prism.
# [2] = system: MCF-7 (estrogen receptor positive breast cancer cells); assay: Anti-proliferation activity against MCF-7 cells (MTS/PMS); conditions: for IC50: Homo sapiens, MCF7
# Method: (§3) Upon completion of synthesis of library of compounds in Examples 23 and 24, the compounds were evaluated for anti-proliferative activity against SkBr3 (Her2 overexpressing breast cancer cells), MCF-7 (estrogen receptor positive breast cancer cells), HCT-116 (colon cancer cells characterized by wild-type p53), PL45 (pancreatic cancer cells), LNCaP (androgen sensitive prostate cancer cells) and PC-3 (androgen independent prostate cancer cells) cell lines.
# as §2
# as §2, with “μg/mL),” for “ng/mL),”, “μL)” for “μl)”
# [3] = system: SkBr3 (Her2 overexpressing breast cancer cells); assay: Anti-proliferation activity against SkBr3 cells (MTS/PMS); conditions: Homo sapiens, SK-BR-3
# Method: as §3, §2
# as §2, with “μg/mL),” for “ng/mL),”, “μL)” for “μl)”
# [4] = system: PC-3 (androgen independent prostate cancer cells); assay: Anti-proliferation activity against PC-3 cells; conditions: for IC50: Homo sapiens
# Method: as §1
# as §2, with “[…] […]” for “Compound or GDA at varying concentrations in DMSO (1% DMSO final concentration) was added, and cells were returned to the incubator for 72 hours. At 72 hours, the number of viable cells was determined using an MTS/PMS cell proliferation kit (Promega) per the manufacturer's instructions.”
# [5] = Table 7, read-out: Anti-proliferation activity LnCaP
# [6] = Table 7, 72 hours, MTS/PMS, mean ± standard deviation, read-out: Anti-proliferation activity MCF-7
# [7] = Table 7, 72 hours, MTS/PMS, mean ± standard deviation, read-out: Anti-proliferation activity SkBr3
# [8] = PC-3, Table 7, 72 hours, MTS/PMS, mean ± standard deviation, read-out: Anti-proliferation activity PC-3
# [9] = Table 6, 72 hours, MTS/PMS, mean ± standard deviation, read-out: IC50 MCF-7
# [10] = Table 6, 72 hours, MTS/PMS, mean ± standard deviation, read-out: IC50 SKBr3
# [11] = PC-3, Table 6, 72 hours, MTS/PMS, mean ± standard deviation, read-out: IC50 PC-3
# [12] = Table 19, 7-oxyalkylamino and 7-oxypiperidinyl analogues, read-out: IC50, MCF-7
# [13] = Table 19, 7-oxyalkylamino and 7-oxypiperidinyl analogues, read-out: IC50, SKBr3
"IC50 ([1]; Table 6, read-out: IC50 LnCaP) [µM]","IC50 [2, 9] [µM]","IC50 [3, 10] [µM]","IC50 [4, 11] [µM]",Compound,other results
–,–,–,–,"COc1cccc(-c2cc(C(=O)Nc3cnc4cc(O[C@@H]5OC(C)(C)[C@H](OC)[C@@H](O)[C@H]5O)ccc4c3)ccc2OC)c1 [42b, N-(7-((2R,3R,4S,5R)-3,4-Dihydroxy-5-methoxy-6,6-dimethyl-tetrahydro-2H-pyran-2-yloxy)quinolin-3-yl)-4-methoxy-3-(3-methoxyphenyl)-benzamide]","IC50 [1, 5]: 14.2 ± 0.4 µM; IC50 [2, 6]: 13.1 ± 4.1 µM; IC50 [3, 7]: 16.5 ± 6.2 µM; IC50 [4, 8]: 17.6 ± 4.6 µM"
11.4,20 ± 1,20.7 ± 0.4,11.9,"CO[C@@H]1[C@@H](O)[C@@H](O)[C@H](Oc2c(OC(C)C)cc3cc(NC(=O)c4cc5ccccc5[nH]4)c(=O)oc3c2C)OC1(C)C [26k, N-(7-((2S,3R,4S,5R)-3,4-dihydroxy-5-methoxy-6,6-dimethyltetrahydro-2H-pyran-2-yloxy)-6-isopropoxy-8-methyl-2-oxo-2H-chromen-3-yl)-1H-indole-2-carboxamide]",–
–,–,–,–,"COc1cccc(-c2cc(C(=O)Nc3ccc4cc(O[C@@H]5OC(C)(C)[C@H](OC)[C@@H](O)[C@H]5O)ccc4c3)ccc2OC)c1 [42d, N-(6-((2R,3R,4S,5R)-3,4-Dihydroxy-5-methoxy-6,6-dimethyl-tetrahydro-2H-pyran-2-yloxy)naphthalen-2-yl)-4-methoxy-3-(3-methoxyphenyl)-benzamide]","IC50 [1, 5]: 19.6 ± 1.6 µM; IC50 [2, 6]: 46.4 ± 5.3 µM; IC50 [3, 7]: 38.9 ± 2.4 µM; IC50 [4, 8]: 10.9 ± 0.7 µM"
49.7 ± 25,> 100,> 100,> 100,"COc1cccc(-c2cc(C(=O)Nc3cc4ccc(O[C@@H]5OC(C)(C)[C@H](OC)[C@@H](O)[C@H]5O)c(Cc5ccccc5)c4oc3=O)ccc2OC)c1 [26e, N-(8-benzyl-7-((2R,3R,4S,5R)-3,4-dihydroxy-5-methoxy-6,6-dimethyltetrahydro-2H-pyran-2-yloxy)-2-oxo-2H-chromen-3-yl)-3′,6-dimethoxybiphenyl-3-carboxamide]",–
–,–,–,–,"COc1ccc(CN(C(=O)c2ccc(OC)c(-c3cccc(OC)c3)c2)c2ccc3cc(O[C@@H]4OC(C)(C)[C@H](OC)[C@@H](O)[C@H]4O)ccc3c2)cc1 [42c, N-(4-Methoxybenzyl)-N-(6-((2R,3R,4S,5R)-3,4-dihydroxy-5-methoxy-6,6-dimethyl-tetrahydro-2H-pyran-2-yloxy)naphthalen-2-yl)-4-methoxy-3-(3-methoxyphenyl)-benzamide]","IC50 [1, 5]: > 100 µM; IC50 [2, 6]: > 100 µM; IC50 [3, 7]: > 100 µM; IC50 [4, 8]: > 100 µM"
14.4 ± 4.2,66.9 ± 3.1,58.6 ± 5.4,60.7 ± 9.1,"COc1cccc(-c2cc(C(=O)Nc3cc4cc(OC(C)C)c(O[C@@H]5OC(C)(C)[C@H](OC)[C@@H](O)[C@H]5O)c(C)c4oc3=O)ccc2OC)c1 [26c, N-(7-((2S,3R,4S,5R)-3,4-dihydroxy-5-methoxy-6,6-dimethyltetrahydro-2H-pyran-2-yloxy)-6-isopropoxy-8-methyl-2-oxo-2H-chromen-3-yl)-3′,6-dimethoxybiphenyl-3-carboxamide]",times less active than the corresponding 6-H ([1]; LnCaP cells): ~7 times
1 ± 0.1,> 100,17.3 ± 3.4,> 100,"COc1cccc(-c2cc(C(=O)Nc3cc4ccc(O[C@@H]5OC(C)(C)[C@H](OC)[C@@H](O)[C@H]5O)c(-c5ccccc5)c4oc3=O)ccc2OC)c1 [26f, N-(7-((2R,3R,4S,5R)-3,4-dihydroxy-5-methoxy-6,6-dimethyltetrahydro-2H-pyran-2-yloxy)-2-oxo-8-phenyl-2H-chromen-3-yl)-3′,6-dimethoxybiphenyl-3-carboxamide]",–
> 100,4.3 ± 2.5,4.3 ± 3.4,> 100,"CCc1c(O[C@@H]2OC(C)(C)[C@H](OC)[C@@H](O)[C@H]2O)ccc2cc(NC(=O)c3cc4ccccc4[nH]3)c(=O)oc12 [26p, N-(7-((2R,3R,4S,5R)-3,4-dihydroxy-5-methoxy-6,6-dimethyltetrahydro-2H-pyran-2-yloxy)-8-ethyl-2-oxo-2H-chromen-3-yl)-1H-indole-2-carboxamide]",fold less active than the 8-methyl derivative ([2]; MCF-7 cells): 7 fold
1.6 ± 0.3,41.7 ± 14,28.6 ± 1.1,1.8 ± 0.6,"CCc1c(O[C@@H]2OC(C)(C)[C@H](OC)[C@@H](O)[C@H]2O)ccc2cc(NC(=O)c3ccc(OC)c(-c4cccc(OC)c4)c3)c(=O)oc12 [26h, N-(7-((2R,3R,4S,5R)-3,4-dihydroxy-5-methoxy-6,6-dimethyltetrahydro-2H-pyran-2-yloxy)-8-ethyl-2-oxo-2H-chromen-3-yl)-3′,6-dimethoxybiphenyl-3-carboxamide]",fold increased activity versus the 8-methyl derivative ([4]; PC-3 cells): 10 fold
–,–,–,–,"COc1cccc(-c2cc(C(=O)Nc3cc4ccc(OCc5cccnc5)c(C)c4oc3=O)ccc2OC)c1 [3′,6-dimethoxy-N-(8-methyl-2-oxo-7-(pyridin-3-ylmethoxy)-2H-chromen-3-yl)-[1,1′-biphenyl]-3-carboxamide]","IC50 ([4]; PC-3, 24 hr., read-out: IC50): 3.8 µM"
–,–,–,–,"COc1ccc(CN(C(=O)c2ccc(OC)c(-c3cccc(OC)c3)c2)c2cnc3cc(O[C@@H]4OC(C)(C)[C@H](OC)[C@@H](O)[C@H]4O)ccc3c2)cc1 [42a, N-(4-Methoxybenzyl)-N-(7-((2R,3R,4S,5R)-3,4-dihydroxy-5-methoxy-6,6-dimethyl-tetrahydro-2H-pyran-2-yloxy)quinolin-3-yl)-4-methoxy-3-(3-methoxyphenyl)-benzamide]","IC50 [1, 5]: > 100 µM; IC50 [2, 6]: > 100 µM; IC50 [3, 7]: > 100 µM; IC50 [4, 8]: > 100 µM"
> 100,> 100,9.7 ± 1,> 100,"COc1c(O[C@@H]2OC(C)(C)[C@H](OC)[C@@H](O)[C@H]2O)ccc2cc(NC(=O)c3cc4ccccc4[nH]3)c(=O)oc12 [26o, N-(7-((2S,3R,4S,5R)-3,4-dihydroxy-5-methoxy-6,6-dimethyltetrahydro-2H-pyran-2-yloxy)-8-methoxy-2-oxo-2H-chromen-3-yl)-1H-indole-2-carboxamide]",–
6.6,> 100,58.8 ± 1.3,35.4,"COc1cccc(-c2cc(C(=O)Nc3cc4cc(OC)c(O[C@@H]5OC(C)(C)[C@H](OC)[C@@H](O)[C@H]5O)c(C)c4oc3=O)ccc2OC)c1 [26a, N-(7-((2S,3R,4S,5R)-3,4-dihydroxy-5-methoxy-6,6-dimethyltetrahydro-2H-pyran-2-yloxy)-6-methoxy-8-methyl-2-oxo-2H-chromen-3-yl)-3′,6-dimethoxybiphenyl-3-carboxamide]",fold increase in anti-proliferation activity versus the 6-H derivative ([4]; PC-3 cells): 2 fold
–,–,–,–,CC(C)=CCc1cc(C(=O)Nc2cc3ccc(OC4CCN(C)CC4)c(C)c3oc2=O)ccc1OCCN(C)C [KU-456],"IC50 [2, 12]: 0.023 µM; IC50 [3, 13]: 0.51 µM"
–,–,–,–,CC(C)=CCc1cc(C(=O)Nc2cc3ccc(OC4CCN(C)CC4)c(C)c3oc2=O)ccc1OC1CCN(C)CC1 [KU-458],"IC50 [2, 12]: 0.15 µM; IC50 [3, 13]: 0.095 µM"
